# Assay results taken from paper PMC10478824, “Development of FAPI Tetramers to Improve Tumor Uptake and Efficacy of FAPI Radioligand Therapy” (Journal of Nuclear Medicine, 2023).
# Key:
# [1] = In vitro stability in phosphate-buffered saline and fetal bovine serum (radio-HPLC); format: in vitro ADME; details: 24 h incubation in phosphate-buffered saline and fetal bovine serum
# [2] = tested on: HT-1080-FAP tumors; assay: Ex vivo biodistribution of ^177Lu-labeled FAPIs in HT-1080-FAP tumor-bearing mice; details: for tumor uptake: HT-1080-FAP tumors
# Procedure: (§1) All animal experimental procedures were approved by the Animal Care and Ethics Committee of Xiamen University and performed in accordance with the Guidelines for the Care and Use of Animals of the Xiamen University Laboratory Animal Center. For in vivo experiments, 6-wk-old BALB/c nude mice (Beijing Vital River Laboratory Animal Technology Co., Ltd.) were subcutaneously inoculated with HT-1080-FAP or U87 cells (5 × 10^6 in 100 μL of phosphate-buffered saline) in the right shoulder.
# Three groups of HT-1080-FAP mice were injected with 0.74 MBq of ^177Lu-FAPI-46, ^177Lu-DOTA-2P(FAPI)2, or ^177Lu-DOTA-4P(FAPI)4 and were euthanized at different time points (24–48 h for monomers and 24–96 h for dimers and tetramers, 3/group). Blood, tumor, muscle, and major organs were weighed and measured using a γ-counter (WIZARD^2 2480). Data were normalized to the percentage injected dose per gram (%ID/g) using 1% of total counts.
# [3] = tested on: HT-1080-FAP tumors; assay: FAP-targeted radioligand therapy in HT-1080-FAP tumor-bearing mice; format: in vivo
# Procedure: as §1
# (§2) When the tumor volume reached approximately 100 mm^3, the mice were randomized into 4 groups for radioligand therapy with ^177Lu-labeled monomeric, dimeric, and tetrameric FAPIs (6/group): group A, saline; group B, 29.6 MBq of ^177Lu-FAPI-46; group C, 29.6 MBq of ^177Lu-DOTA-2P(FAPI)2; and group D, 29.6 MBq of ^177Lu-DOTA-4P(FAPI)4. […] HT-1080-FAP, a FAP-transfected tumor xenograft with much higher levels of FAP expression than U87MG, was also used in this study. Therefore, the frequency of administration was higher in U87MG tumor–bearing mice (every 72 h, 3 doses in total) than in the HT-1080-FAP models (a single dose). Weight and tumor volume were monitored every 2 d, and the mice were euthanized when the average tumor volume exceeded 1,500 mm^3, when the tumor was ulcerated, or when weight loss was more than 20%. To further assess radioligand therapy–related toxicity effects, the main organs were collected from the ^177Lu-DOTA-4P(FAPI)4 group on day 22 after hematoxylin and eosin staining ([16]).
# [4] = tested on: U87MG tumors; assay: FAP-targeted radioligand therapy in U87MG tumor-bearing mice; format: in vivo; details: 29.6 MBq every 72 h, 3 doses
# Procedure: as §1
# as §2, with “To further assess radioligand therapy–related toxicity effects, the main organs were collected from the ^177Lu-DOTA-4P(FAPI)4 group on day 22 after hematoxylin and eosin staining ([16]).” left out
# [5] = biological target: T1, FAP (FAP-positive HT-1080-FAP cells) (Homo sapiens, UniProt Q12884); assay: Competitive cell-binding assay against ^68Ga-FAPI-46; details: competition with ^68Ga-FAPI-46, 60 min, read-out: 50% inhibitory concentration
# T1 construct: expressed in transfected cells; host or cells: HT-1080 human fibrosarcoma cells, stably transfected (HT-1080-FAP)
# T1 sequence (Q12884 1-760): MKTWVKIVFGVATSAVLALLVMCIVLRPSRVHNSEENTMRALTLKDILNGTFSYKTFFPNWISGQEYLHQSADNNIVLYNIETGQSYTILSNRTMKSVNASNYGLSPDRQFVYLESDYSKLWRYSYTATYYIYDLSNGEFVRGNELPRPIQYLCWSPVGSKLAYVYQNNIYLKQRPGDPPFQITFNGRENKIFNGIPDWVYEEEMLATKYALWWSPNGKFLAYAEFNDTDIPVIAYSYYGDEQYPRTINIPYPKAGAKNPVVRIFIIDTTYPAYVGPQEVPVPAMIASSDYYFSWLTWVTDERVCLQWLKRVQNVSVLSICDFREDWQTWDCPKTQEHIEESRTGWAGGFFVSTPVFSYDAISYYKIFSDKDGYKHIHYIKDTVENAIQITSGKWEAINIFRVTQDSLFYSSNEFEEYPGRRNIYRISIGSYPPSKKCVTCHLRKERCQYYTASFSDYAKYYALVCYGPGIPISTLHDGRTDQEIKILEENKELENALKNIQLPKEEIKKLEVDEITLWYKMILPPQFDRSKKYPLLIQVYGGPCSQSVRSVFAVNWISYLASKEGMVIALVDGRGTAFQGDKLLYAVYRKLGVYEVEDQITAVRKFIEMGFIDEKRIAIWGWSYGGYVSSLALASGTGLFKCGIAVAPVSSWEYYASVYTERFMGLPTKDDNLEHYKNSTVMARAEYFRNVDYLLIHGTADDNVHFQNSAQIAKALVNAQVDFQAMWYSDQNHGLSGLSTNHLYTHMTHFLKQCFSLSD
# Procedure: A human fibrosarcoma cell line was stably transfected with FAP (HT-1080-FAP) and cultured, as previously described ([15]). A human glioblastoma cell line (U87MG, from the Chinese National Infrastructure of Cell Line Resource) was cultured in Dulbecco modified Eagle medium (Thermo Fischer Scientific) supplemented with 10% fetal bovine serum (Thermo Fisher Scientific). HT-1080-FAP cells were seeded in 24-well plates using RPMI 1640 medium with 10% fetal bovine serum, and the medium was replaced with fresh medium without fetal bovine serum when the cells reached 80%–90% density. ^68Ga-FAPI-46, ^68Ga-DOTA-2P(FAPI)2, ^68Ga-DOTA-4P(FAPI)4, or ^68Ga-DOTA-4P(FAPI)4 with 11.3 nmol of unlabeled FAPI-46 (for the blocking experiment) were added to the 24-well plates and incubated for 60, 90, and 120 min. For the competitive cell-binding assay, a gradient concentration (5.6 × 10^−13 to 10^−5 M) of FAPI-46, DOTA-2P(FAPI)2, or DOTA-4P(FAPI)4 was added to the cells and incubated with ^68Ga-FAPI-46 for 60 min. […] The radioactivity (counts per minute) was determined with a γ-counter (WIZARD^2 2480; PerkinElmer Inc.). […] The 50% inhibitory concentrations were determined by fitting a nonlinear regression model to the data using Prism software, version 8 (GraphPad Software Inc.).
# [6] = HT-1080-FAP tumor-bearing mice, 48 h after injection
Structure (SMILES),in vitro stability (demetallation / free radioactivity) [1],in vitro stability (demetallation / free radioactivity) ([1]; listed as 177Lu-DOTA-4P[FAPI]4),"kidney uptake [2, 6] [%ID/g]","liver uptake [2, 6] [%ID/g]","spleen uptake [2, 6] [%ID/g]",tumor uptake ([2]; 24 h after injection) [%ID/g],tumor uptake ([2]; 48 h after injection) [%ID/g],tumor uptake ([2]; 72 h after injection) [%ID/g],tumor uptake ([2]; 96 h after injection) [%ID/g],"systemic toxicity by monitoring body weight ([3]; HT-1080-FAP tumor-bearing mice, 29.6 MBq)","tumor growth after radioligand therapy ([3]; HT-1080-FAP, single dose 29.6 MBq)","hematoxylin and eosin staining of selected nontarget organs ([3]; organs collected on day 22, versus control)",median survival [4],tumor volume ([4]; day 14 after treatment) [mm^3],IC50 [5] [nM]
CN(CCCN1CCN(C(=O)COCCOCCOCCNC(=O)CCC(=O)NCCCC[C@H](NC(=O)CCC(=O)NCCOCCOCCOCC(=O)N2CCN(CCCN(C)c3ccc4nccc(C(=O)NCC(=O)N5CC(F)(F)C[C@H]5C#N)c4c3)CC2)C(=O)NCCCC[C@H](NC(=O)[C@H](CCCCNC(=O)CN2CCN(CC(=O)[O-])CCN(CC(=O)[O-])CCN(CC(=O)[O-])CC2)NC(=O)CCC(=O)NCCOCCOCCOCC(=O)N2CCN(CCCN(C)c3ccc4nccc(C(=O)NCC(=O)N5CC(F)(F)C[C@H]5C#N)c4c3)CC2)C(=O)NCCOCCOCCOCC(=O)N2CCN(CCCN(C)c3ccc4nccc(C(=O)NCC(=O)N5CC(F)(F)C[C@H]5C#N)c4c3)CC2)CC1)c1ccc2nccc(C(=O)NCC(=O)N3CC(F)(F)C[C@H]3C#N)c2c1.[177Lu+3] [^177Lu-DOTA-4P(FAPI)4],highly stable,neither significant demetallation nor free radioactivity was observed,6.6 ± 0.2,6.3 ± 0.5,5.1 ± 0.7,21.4 ± 1.7,19.2 ± 0.6,18.8 ± 2.1,14.8 ± 0.9,No systemic toxicity,significant inhibition of tumor growth,no differences between the control and radioligand therapy groups,not reached,140.28 ± 76.36,
CN(CCCN1CCN(C(=O)COCCOCCOCCNC(=O)CCC(=O)NCCCC[C@H](NC(=O)CCC(=O)NCCOCCOCCOCC(=O)N2CCN(CCCN(C)c3ccc4nccc(C(=O)NCC(=O)N5CC(F)(F)C[C@H]5C#N)c4c3)CC2)C(=O)NCCCC[C@H](NC(=O)[C@H](CCCCNC(=O)CN2CCN(CC(=O)O)CCN(CC(=O)O)CCN(CC(=O)O)CC2)NC(=O)CCC(=O)NCCOCCOCCOCC(=O)N2CCN(CCCN(C)c3ccc4nccc(C(=O)NCC(=O)N5CC(F)(F)C[C@H]5C#N)c4c3)CC2)C(=O)NCCOCCOCCOCC(=O)N2CCN(CCCN(C)c3ccc4nccc(C(=O)NCC(=O)N5CC(F)(F)C[C@H]5C#N)c4c3)CC2)CC1)c1ccc2nccc(C(=O)NCC(=O)N3CC(F)(F)C[C@H]3C#N)c2c1 [DOTA-4P(FAPI)4],,,,,,,,,,,,,,,15.6
